In US12227488B2, “Small molecule degraders of Helios and methods of use” (DANA-FARBER CANCER INSTITUTE, INC., priority 2018, dated 2025):

Legend:
IKZF1 = target: T1, IKZF1 (Homo sapiens, UniProt Q13422); assay: Cellular degradation assay, eGFP-IKZF1Δ fusion with mCherry reporter in Flp-In 293 cells; type: cell-based; conditions: 5 h incubation, n=1
T1 construct: expressed in transfected cells; host or cells: Flp-In 293
In short: (§1)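 Flp-In 293 cells stably expressing eGFP-tagged degron fusions with P2A-mCherry reporter were treated with compound titrations (0.5% DMSO) for 5 hours. Imaging quantified GFP-positive/mCherry-positive cell fraction per well; DC50 at 5 h from nonlinear variable-slope fit.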

GSPT1 = GSPT1 (Homo sapiens, UniProt P15170+Q96SW2); assay: Cellular degradation assay, eGFP-GSPT1 fusion with mCherry reporter in Flp-In 293 cells; type: cell-based; design: expressed in transfected cells; host or cells: Flp-In 293; conditions: 5 h incubation, n=1
In short: as §1

SALL4 ZNF1-2 = target: T2, SALL4 ZNF1-2 (Homo sapiens, UniProt Q96SW2+Q9UJQ4); assay: Cellular degradation assay, eGFP-SALL4 ZnF1-2 fusion with mCherry reporter in Flp-In 293 cells; type: cell-based; conditions: 5 h incubation, n=1
T2 construct: IKZF1Δ, IKZF2Δ, GSPT1 and SALL4 ZnF1-2 were subcloned; expressed in transfected cells; host or cells: Flp-In 293
In short: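 Flp-In 293 cells stably expressing eGFP-SALL4 ZnF1-2 fusion plus mCherry reporter were treated with compound titrations (0.5% DMSO) for 5 hours. Imaging at 488/561 nm gave, per well, the fraction of GFP-positive among mCherry-positive cells.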

CRBN and Helios (IKZF2) = target: T3, CRBN and Helios (IKZF2) (Homo sapiens, UniProt Q96SW2+Q9UKS7); assay: TR-FRET dimerization assay (CRBN-IKZF2 ternary complex formation); type: binding; conditions: n=1
T3 construct: His (N); Strep (N)
In short: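 BODIPY-labeled DDB1ΔB-CRBN and in vitro biotinylated IKZF2 were treated with increasing compound concentrations plus tracer Terbium-Streptavidin and incubated 15 min at rt. Recruitment was quantified as the 520/490 nm TR-FRET ratio; values are single measurements (n=1), each averaged from at least three technical replicates.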

IKZF2 = assay: Cellular degradation assay, eGFP-IKZF2Δ fusion with mCherry reporter in Flp-In 293 cells; type: cell-based; conditions: 5 h incubation, n=1
In short: as §1

[1] = compound concentration 2.00E−05
[2] = compound concentration 2.00E−06
[3] = compound concentration 2.00E−07
[4] = compound concentration 6.6667E−05
[5] = compound concentration 6.6667E−06
[6] = compound concentration 6.6667E−07 (667 nM)

T2 sequence (Q9UJQ4 378-438 limits assumed): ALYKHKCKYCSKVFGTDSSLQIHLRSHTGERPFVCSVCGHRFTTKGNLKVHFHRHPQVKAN
T2 sequence (Q96SW2 whole entry, the tested form may be a part): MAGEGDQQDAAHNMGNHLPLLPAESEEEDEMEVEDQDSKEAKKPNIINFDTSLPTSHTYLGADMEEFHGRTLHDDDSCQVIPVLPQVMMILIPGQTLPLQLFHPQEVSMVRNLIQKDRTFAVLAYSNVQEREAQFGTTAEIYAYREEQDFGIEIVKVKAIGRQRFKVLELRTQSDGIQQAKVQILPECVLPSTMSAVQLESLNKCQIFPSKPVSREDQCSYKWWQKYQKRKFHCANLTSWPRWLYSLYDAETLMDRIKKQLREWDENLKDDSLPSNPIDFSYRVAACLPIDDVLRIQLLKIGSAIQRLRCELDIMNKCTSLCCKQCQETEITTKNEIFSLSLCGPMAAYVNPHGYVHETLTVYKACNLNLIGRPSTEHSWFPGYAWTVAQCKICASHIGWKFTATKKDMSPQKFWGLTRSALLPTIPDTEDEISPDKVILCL
T2 sequence (Q16531 whole entry partner, the tested form may be a part): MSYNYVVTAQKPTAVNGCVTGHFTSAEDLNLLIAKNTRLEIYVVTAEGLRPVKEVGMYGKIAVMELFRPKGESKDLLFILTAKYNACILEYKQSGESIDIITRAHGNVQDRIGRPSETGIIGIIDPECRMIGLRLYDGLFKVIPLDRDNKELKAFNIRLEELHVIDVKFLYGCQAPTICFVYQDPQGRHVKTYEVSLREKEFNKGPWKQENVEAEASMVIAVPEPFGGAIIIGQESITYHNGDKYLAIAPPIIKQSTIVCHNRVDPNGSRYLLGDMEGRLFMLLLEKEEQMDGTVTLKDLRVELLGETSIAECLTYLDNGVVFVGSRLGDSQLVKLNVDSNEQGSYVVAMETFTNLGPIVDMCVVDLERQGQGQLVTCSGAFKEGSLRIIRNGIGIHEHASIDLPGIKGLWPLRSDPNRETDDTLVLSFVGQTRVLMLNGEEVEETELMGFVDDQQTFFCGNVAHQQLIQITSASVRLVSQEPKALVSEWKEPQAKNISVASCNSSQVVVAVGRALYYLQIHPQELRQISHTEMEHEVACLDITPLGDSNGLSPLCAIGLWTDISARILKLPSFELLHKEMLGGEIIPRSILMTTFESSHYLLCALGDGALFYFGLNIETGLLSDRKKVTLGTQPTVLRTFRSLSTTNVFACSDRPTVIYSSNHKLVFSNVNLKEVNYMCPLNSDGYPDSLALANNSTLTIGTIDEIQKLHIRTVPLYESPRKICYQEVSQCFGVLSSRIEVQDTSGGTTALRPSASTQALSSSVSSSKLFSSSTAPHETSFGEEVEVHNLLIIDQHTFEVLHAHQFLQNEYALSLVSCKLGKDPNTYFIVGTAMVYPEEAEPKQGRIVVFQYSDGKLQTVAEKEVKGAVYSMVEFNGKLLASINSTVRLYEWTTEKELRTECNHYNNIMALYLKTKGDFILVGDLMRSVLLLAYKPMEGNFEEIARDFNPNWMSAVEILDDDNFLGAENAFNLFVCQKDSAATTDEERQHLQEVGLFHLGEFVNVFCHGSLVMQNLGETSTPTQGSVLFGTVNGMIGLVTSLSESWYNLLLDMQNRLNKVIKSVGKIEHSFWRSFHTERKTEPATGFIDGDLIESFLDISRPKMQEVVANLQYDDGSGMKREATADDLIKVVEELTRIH
T3 sequence (Q96SW2 whole entry): as the sequence (Q96SW2 whole entry, the tested form may be a part) above
T3 sequence (Q9UKS7 whole entry): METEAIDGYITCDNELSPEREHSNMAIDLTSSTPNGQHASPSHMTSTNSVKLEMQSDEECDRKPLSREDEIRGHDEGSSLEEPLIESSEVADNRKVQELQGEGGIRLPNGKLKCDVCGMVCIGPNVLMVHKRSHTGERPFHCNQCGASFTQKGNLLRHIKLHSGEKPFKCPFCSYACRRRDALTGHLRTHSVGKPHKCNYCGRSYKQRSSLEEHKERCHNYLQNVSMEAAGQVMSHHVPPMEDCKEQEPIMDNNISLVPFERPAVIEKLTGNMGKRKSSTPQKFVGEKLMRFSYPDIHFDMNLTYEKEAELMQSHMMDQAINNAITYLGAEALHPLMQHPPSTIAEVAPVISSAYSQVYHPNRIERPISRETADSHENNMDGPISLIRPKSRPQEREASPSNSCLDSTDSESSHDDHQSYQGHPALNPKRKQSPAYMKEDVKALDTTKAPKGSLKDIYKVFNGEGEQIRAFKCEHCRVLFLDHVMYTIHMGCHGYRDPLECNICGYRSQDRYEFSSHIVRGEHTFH
Sequence of GSPT1 (P15170 whole entry, the tested form may be a part): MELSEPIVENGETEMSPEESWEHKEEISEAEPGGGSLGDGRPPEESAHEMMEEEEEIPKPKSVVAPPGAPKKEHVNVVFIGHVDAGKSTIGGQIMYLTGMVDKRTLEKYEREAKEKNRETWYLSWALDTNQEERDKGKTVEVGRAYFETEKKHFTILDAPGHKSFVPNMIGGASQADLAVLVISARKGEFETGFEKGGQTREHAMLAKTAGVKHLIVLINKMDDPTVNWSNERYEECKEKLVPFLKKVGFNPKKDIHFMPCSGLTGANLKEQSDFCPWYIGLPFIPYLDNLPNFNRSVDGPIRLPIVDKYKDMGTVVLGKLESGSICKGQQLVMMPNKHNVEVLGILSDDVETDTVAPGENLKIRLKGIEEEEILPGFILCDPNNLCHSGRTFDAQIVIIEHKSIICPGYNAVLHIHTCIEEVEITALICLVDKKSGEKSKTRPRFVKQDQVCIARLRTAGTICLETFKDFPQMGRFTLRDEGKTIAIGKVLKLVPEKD
Sequence of GSPT1 (Q96SW2 whole entry, the tested form may be a part): as the sequence (Q96SW2 whole entry, the tested form may be a part) above
Sequence of GSPT1 (Q16531 whole entry partner, the tested form may be a part): as the sequence (Q16531 whole entry partner, the tested form may be a part) above
T1 sequence (Q13422 83-213 isoform Q13422-7 limits assumed): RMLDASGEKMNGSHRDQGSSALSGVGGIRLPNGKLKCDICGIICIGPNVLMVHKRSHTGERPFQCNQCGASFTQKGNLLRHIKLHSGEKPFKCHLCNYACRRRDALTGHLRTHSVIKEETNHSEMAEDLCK
T1 sequence (Q96SW2 whole entry partner, the tested form may be a part): as the sequence (Q96SW2 whole entry, the tested form may be a part) above
T1 sequence (Q16531 2-1140 partner limits assumed): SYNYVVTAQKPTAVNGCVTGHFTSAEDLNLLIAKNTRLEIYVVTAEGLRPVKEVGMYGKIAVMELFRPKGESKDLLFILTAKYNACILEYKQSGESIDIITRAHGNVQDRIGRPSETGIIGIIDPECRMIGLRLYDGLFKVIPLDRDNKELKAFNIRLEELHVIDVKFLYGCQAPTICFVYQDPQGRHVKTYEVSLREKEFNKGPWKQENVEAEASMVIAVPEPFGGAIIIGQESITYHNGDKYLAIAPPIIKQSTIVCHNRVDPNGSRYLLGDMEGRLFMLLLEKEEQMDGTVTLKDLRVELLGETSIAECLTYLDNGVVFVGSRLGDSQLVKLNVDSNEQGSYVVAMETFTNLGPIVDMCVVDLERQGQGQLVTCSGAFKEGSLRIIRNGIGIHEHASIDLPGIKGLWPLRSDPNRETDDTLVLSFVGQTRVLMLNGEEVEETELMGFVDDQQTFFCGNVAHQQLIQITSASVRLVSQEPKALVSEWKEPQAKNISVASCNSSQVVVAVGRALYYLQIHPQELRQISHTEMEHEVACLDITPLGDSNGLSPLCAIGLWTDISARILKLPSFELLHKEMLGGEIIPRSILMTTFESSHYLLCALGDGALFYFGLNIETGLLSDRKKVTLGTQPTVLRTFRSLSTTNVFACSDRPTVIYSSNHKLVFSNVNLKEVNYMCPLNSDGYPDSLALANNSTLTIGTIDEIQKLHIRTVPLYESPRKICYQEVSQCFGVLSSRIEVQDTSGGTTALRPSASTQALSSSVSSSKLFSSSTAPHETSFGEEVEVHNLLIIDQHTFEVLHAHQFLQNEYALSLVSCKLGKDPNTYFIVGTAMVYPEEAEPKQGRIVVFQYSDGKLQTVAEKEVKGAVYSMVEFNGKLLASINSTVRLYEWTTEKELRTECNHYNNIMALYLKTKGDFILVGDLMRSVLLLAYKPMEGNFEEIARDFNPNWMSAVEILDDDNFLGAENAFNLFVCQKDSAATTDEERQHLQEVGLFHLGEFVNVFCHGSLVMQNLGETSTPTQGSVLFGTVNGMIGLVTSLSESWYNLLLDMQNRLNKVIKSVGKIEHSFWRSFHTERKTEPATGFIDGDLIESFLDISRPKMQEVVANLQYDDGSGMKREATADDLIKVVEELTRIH

Row | SMILES | IKZF1 GFP/RFP Relative Abundance (IKZF1; [1]) | IKZF1 GFP/RFP Relative Abundance (IKZF1; [2]) | IKZF1 GFP/RFP Relative Abundance (IKZF1; [3]) | GSPT1 GFP/RFP Relative Abundance (GSPT1; [1]) | GSPT1 GFP/RFP Relative Abundance (GSPT1; [2]) | GSPT1 GFP/RFP Relative Abundance (GSPT1; [3]) | SALL4 ZNF1-2 GFP/RFP Relative Abundance (SALL4 ZNF1-2; [1]) | SALL4 ZNF1-2 GFP/RFP Relative Abundance (SALL4 ZNF1-2; [2]) | SALL4 ZNF1-2 GFP/RFP Relative Abundance (SALL4 ZNF1-2; [3]) | TR-FRET-IKZF2 (Normalized to CC-885) (CRBN and Helios (IKZF2); [4]) | TR-FRET-IKZF2 (Normalized to CC-885) (CRBN and Helios (IKZF2); [5]) | TR-FRET-IKZF2 (Normalized to CC-885) (CRBN and Helios (IKZF2); [6]) | IKZF2 GFP/RFP Relative Abundance (IKZF2; [1]) | IKZF2 GFP/RFP Relative Abundance (IKZF2; [2]) | IKZF2 GFP/RFP Relative Abundance (IKZF2; [3])
1 | O=C1CCC(N2C(=O)C=C(Nc3cccc(-c4nnn[nH]4)c3)C2=O)C(=O)N1 (stereo not drawn) [Compound 23, 3-(3-((3-(1H-tetrazol-5-yl)phenyl)amino)-2,5-dioxo-2,5-dihydro-1H-pyrrol-1-yl)piperidine-2,6-dione] | 0.866 | 1.044 | 0.756 | 0.976 | 0.936 | 0.953 | 0.922 | 0.979 | 0.981 | 0.326 | 0.259 | 0.196 | 1.013 | 1.016 | 1.015
2 | Cc1ccc(NC2=CC(=O)N(C3CCC(=O)NC3=O)C2=O)cc1C (stereo not drawn) [Compound 24, 3-(3-((3,4-dimethylphenyl)amino)-2,5-dioxo-2,5-dihydro-1H-pyrrol-1-yl)piperidine-2,6-dione] | 0.236 | 0.342 | 0.369 | 1.153 | 1.221 | 1.218 | 0.937 | 0.941 | 0.942 | 0.391 | 0.344 | 0.282 | 0.959 | 0.954 | 1.038
3 | O=C1CCC(N2C(=O)C=C(Nc3ccc(Cl)cc3)C2=O)C(=O)N1 (stereo not drawn) [Compound 25, 3-(3-((4-chlorophenyl)amino)-2,5-dioxo-2,5-dihydro-1H-pyrrol-1-yl)piperidine-2,6-dione] | 0.258 | 0.298 | 0.341 | 1.019 | 1.233 | 1.201 | 0.831 | 0.897 | 0.887 | 0.339 | 0.282 | 0.230 | 0.966 | 0.978 | 0.955
4 | O=C1CCC(N2C(=O)C=C(Nc3cccc(Cl)c3)C2=O)C(=O)N1 (stereo not drawn) [Compound 26, 3-(3-((3-chlorophenyl)amino)-2,5-dioxo-2,5-dihydro-1H-pyrrol-1-yl)piperidine-2,6-dione] | 0.290 | 0.381 | 0.478 | 0.952 | 1.036 | 1.107 | 0.855 | 0.869 | 0.787 | 0.365 | 0.293 | 0.228 | 0.913 | 0.929 | 0.981
5 | O=C1CCC(N2C(=O)C=C(Nc3cnc4ccccc4c3)C2=O)C(=O)N1 (stereo not drawn) [Compound 27, 3-(2,5-dioxo-3-(quinolin-3-ylamino)-2,5-dihydro-1H-pyrrol-1-yl)piperidine-2,6-dione] | 0.701 | 0.776 | 0.801 | 0.881 | 1.083 | 0.987 | 1.026 | 1.005 | 0.913 | 0.137 | 0.105 | 0.084 | 1.004 | 0.990 | 0.931
6 | CN(C1=CC(=O)N(C2CCC(=O)NC2=O)C1=O)c1ccccc1 (stereo not drawn) [Compound 28, 3-(3-(methyl(phenyl)amino)-2,5-dioxo-2,5-dihydro-1H-pyrrol-1-yl)piperidine-2,6-dione] | 0.978 | 0.996 | 1.029 | 1.001 | 0.917 | 0.805 | 0.969 | 0.936 | 0.946 | 0.072 | 0.050 | 0.053 | 1.006 | 1.011 | 1.064
7 | O=C1CCC(N2C(=O)C=C(Nc3ccc(-n4ccnc4)cc3)C2=O)C(=O)N1 (stereo not drawn) [Compound 29, 3-(3-((4-(1H-imidazol-1-yl)phenyl)amino)-2,5-dioxo-2,5-dihydro-1H-pyrrol-1-yl)piperidine-2,6-dione] | 0.495 | 0.516 | 0.602 | 0.790 | 0.913 | 0.729 | 0.958 | 0.913 | 0.908 | 0.347 | 0.297 | 0.270 | 0.982 | 1.005 | 0.942
8 | CCOC(=O)c1cccc(NC2=CC(=O)N(C3CCC(=O)NC3=O)C2=O)c1 (stereo not drawn) [Compound 30, Ethyl 3-((1-(2,6-dioxopiperidin-3-yl)-2,5-dioxo-2,5-dihydro-1H-pyrrol-3-yl)amino)benzoate] | 0.388 | 0.437 | 0.631 | 1.100 | 1.129 | 1.192 | 0.815 | 0.786 | 0.896 | 0.386 | 0.324 | 0.228 | 0.916 | 0.928 | 0.979
